Data reported in patent publication US8877773B2, “Methods for treating chronic obstructive pulmonary disease” (Indiana University Research and Technology Corporation, priority 2009, dated 2014).
Entries after “also recorded” stand apart in the source; their conditions may differ.

Tests used:
Assay type in all cases: in vivo, rat
[1] = test system: Orexin A (ORX-A) producing neurons in the DMH/PeF; assay: c-Fos induction in ORX neurons of 1-AG and d-AG treated rats; settings: 1-AG infused into DMH/PeF (3.5 nmol/0.5 μl per hour); vs d-AG treated control rats
Experimental: Methods for perfusion and for verification of cannulae placements in experiment 12 were performed following procedures discussed herein. Briefly, 1-AG or d-AG treated rats received i.v. infusions of either lactate or saline vehicle over 15 min (n=6/group for 4 groups), were immediately tested in the SI test, then anesthetized and perfused with a 4% paraformaldehyde/1.5% sucrose solution and processed for immunohistochemistry 90 min following the onset of the i.v. infusions.
Brain sections from all rats were immunostained with the appropriate primary antibody in a single immunohistochemical run, rather than in batches, with large volume incubations to limit variability in the quality of immunohistochemical staining among brain sections.
Sections were washed in PBS and then incubated in 1% H2O2 in PBS for 20 min. Sections were washed in PBS then PBST then incubated 12-16 h in PBST with primary antibody. The following day, sections were incubated 2 h in the appropriate secondary antibody: biotinylated swine anti-rabbit IgG (c-Fos day 1, and orexin A or MCH day 2; cat no. E0353; DAKO, diluted 1:200). Sections were washed again for 30 min in PBST then incubated 1.5 h in an avidin-biotin-peroxidase complex (cat no. PK-6100, Vector Labs, diluted 1:200). […]

FG-7142 treated rats = assay: FG-7142-induced anxiety: open field, social interaction and elevated plus maze tests; settings: Wistar rats; FG-7142 7.5 mg/kg ip, with or without SB334867 30 mg/kg ip
Experimental: All experiments were conducted on adult male Wistar rats (250-300 g) purchased from Harlan Laboratories (Indianapolis, Ind. USA) and were housed individually in plastic cages under standard environmental conditions (22° C.; 12/12 light/dark cycle; lights on at 7:00 A.M.) for 7-10 days prior to the surgical manipulations. Food and water were provided ad libitum.
The open-field arena covered an area of 90 cm×90 cm, with 40 cm high walls. The open-field arena was divided into a 6×6 grid of equally-sized squares using black tape (36 total squares) with 4 squares forming the centre; 12 squares forming the middle perimeter; and 20 squares forming the outer perimeter. The test started by placing a rat in the centre. The behavior of each rat in the open-field arena was recorded on video and scored afterwards by an observer blind to the experimental treatment of each rat. Time spent in each region of the open-field was recorded. In addition, locomotor activity was assessed by counting the number of times the rat's entire body (excluding tail) completely crossed into another square.
Following the OFT, the experimental rat was placed in an open field (0.9 m long×0.9 m wide with walls 0.3 m high) with an untreated novel partner rat. A video camera was fixed above the box, and all behavioral tests were videotaped. During the 5 min test the total amount of time the treated rat initiates interaction with the partner rat is recorded (sniffing, grooming etc.) as described previously. Videotaped sessions were scored at a later time by a SDF (blind to treatments) and a decrease in total interaction time was taken as an increase in “anxiety” like behavior.
Following the SI test, rats were place in the center area of the EPM where the two arms intersect. Unlike the SI test, the EPM measures many relevant anxiety related behaviors such as: no. of poke and full entries into and duration spent in closed versus open arm. […] Activity is measured using […] state of the art photobeams (16× beams and 16 Y beams) to provide the highest resolution system available (Automated EPM, Hamilton Kinder Scientific, San diego, CA).

c-Fos = c-Fos immunoreactive cell counts in brain regions after FG-7142 challenge; settings: FG-7142 7.5 mg/kg ip after vehicle (veh/FG) or SB334867 30 mg/kg ip (SB/FG); 90 min
Experimental: Fifteen min after the FG-7142 injection, all rats were tested for anxiety behavior using a 5 min open field test (OFT); 5 min social interaction (SI) test; then a 5 min elevated plus maze (EPM) test. Ninety min following FG-7142 injections, rats were anaesthetized and then the brains were removed and processed for immunohistochemistry as described in detail in subsequent section.
Ninety min following the initiation of treatment, rats were anaesthetised with an overdose of sodium pentobarbital (40 mg, i.p.) then perfused transcardially with 0.05 M phosphate buffered saline (PBS; 250 ml), followed by 0.1 M sodium phosphate buffer (PB; 250 ml) containing 4% paraformaldehyde (PFA) and 3% sucrose. Brains were removed and post-fixed for 24 h in the same fixative, rinsed for 24 h in 0.1 M PB, then placed in cryoprotectant (30% sucrose in 0.1 M PB) for an additional 4-5 days. To maintain a consistent plane for coronal sections, brains were placed in a rat brain matrix (ASI instruments, Model No. RBM-4000C) and cut with a razor blade at the caudal border of the mammillary bodies. Brains were frozen in cooled liquid isopentane made by immersing a plastic vessel containing isopentane into a dewar flask containing liquid nitrogen. Serial coronal sections (30 μm) were cut using a cryostat and were immediately placed in cryoprotectant consisting of 27% ethylene glycol and 16% glycerol in 0.05 M PB to yield six alternate sets of sections. Sections were stored at −20° C. until immunohistochemical processing.
All brain sections were immunostained with the c-Fos primary antibody in a single immunohistochemical run, rather than in batches, with large volume incubations to limit variability in the quality of immunohistochemical staining among brain sections. However, the forebrain was immunostained for c-Fos in one run and the brainstem (i.e., midbrain, pons and medulla) in another. Immunostaining for c-Fos protein was accomplished using an affinity-purified primary antibody directed at c-Fos (rabbit anti-human c-Fos polyclonal affinity-purified antibody, Cat. no. sc-52, Santa Cruz Biotechnology, San Diego, Calif.; diluted 1:10,000). Free-floating sections were washed in 0.1 M PBS for 30 min, then incubated in 1% H2O2 in PBS for 20 min. Sections were then washed 10 min in PBS and 20 min in PBS with 0.3% Triton X-100 (PBST). Sections were then incubated 12-16 h in PBST with primary antibody solution at room temperature. After a 30 min wash in PBST, sections were incubated for 2 hr in biotinylated goat anti-rabbit IgG (Cat no. BA-1000, Vector Laboratories, Burlinghame, Calif.; diluted 1:500). Sections were washed again for 30 min in PBST then incubated 1.5 hr in an avidin-biotin-peroxidase complex provided in a standard Vector Elite kit (Cat no. PK-6100, Vector Laboratories, diluted 1:200). The peroxidase substrate for the chromogen reaction was Vector SG, which was prepared as recommended by the manufacturer (Cat. no. SK-4700, Vector Laboratories). The substrate reaction was run for 20 min for the forebrain. All sections were mounted on clean glass slides, dried overnight, dehydrated and mounted with coverslips using DPX mounting medium (BDH Laboratory Supplies, Poole, UK). All washes and incubations were done at room temperature in 12-well polystyrene plates with low frequency shaking on an orbital shaker.
Selection of anatomical levels for analysis of c-Fos-immunostained cells was conducted with reference to illustrations from a rat brain stereotaxic atlas (Paxinos and Watson, 1997). Selection of anatomical levels was also done in reference to major anatomical landmarks including white matter tracts and the ventricular systems.

[2] = test system: panic-prone (1-AG treated) rats; assay: Sodium lactate (NaLac) challenge in panic-prone (1-AG treated) rats: social interaction (SI) test; settings: alprazolam 3 mg/kg; for anxiety-like responses (social interaction (SI) duration) after NaLac challenge: i.p. 30 min prior to NaLac, SB334867/SB408124 30 mg/kg, experiments 4 and 6
Source text: (§1) The minipump was then sutured into place subcutaneously at the nape of the neck. The concentration of the solutions was such that 3.5 nmol/[…] per hour of 1-AG or d-AG was infused continuously into the DMH/PeF region for the remainder of the given experiment. In the case of the siRNA experiments specialized T-cannulae were implanted permitting access to a removable 28 g injector to direct siRNA injections to the same location as the 1-AG infusions. Additionally these rats had guide cannulae directed to the opposite DMH/PeF for bilateral infusion of siRNA.
(§2) Rats received intravenous (i.v.) infusions (10 ml over 15 min of either 0.5M NaLac or 0.9% isotonic saline (when applicable)) using a syringe pump at least five days following the initiation of 1-AG or d-AG infusions. Once a stable baseline was achieved, i.v. infusions began and cardiovascular and activity data were recorded for 15 min (similar to clinical NaLac infusions).
Another SI test was performed 5 days following minipump infusions and immediately following saline or sodium lactate infusions.
In experiment 3, an RNAase free environment was maintained throughout the injection procedure and all injectors, syringes and tubing were exposed to RNaseZAP and rinsed thoroughly with RNA-free water prior to siRNA injections. […] 48 hrs after siORX or siCON treatment, these rats were exposed to saline or NaLac infusions (siCon/Sal n=4, siORX/Sal n=6, siCON/Lac n=5, siORX/Lac n=6) and SI behavioral and cardiovascular responses were recorded, and were then sacrificed by rapid decapitation, following a brief (30 s) exposure to IsoFlurane® 1 hr after the intravenous infusions.
In experiments 4-6, rats were made panic vulnerable with 1-AG. […] In experiment 5, baseline in an open field (OF) behavior test of anxiety was assessed (n=8) prior to 1-AG infusions. […] In experiment 7, control rats (no 1-AG or NaLac treatment) were assessed in a SI test. […]

[3] = test system: panic-prone (1-AG treated) rats; assay: Sodium lactate (NaLac) challenge in panic-prone rats: radio-telemetry of locomotor and cardiovascular (HR, MAP) responses; settings: i.p. 30 min prior to NaLac, SB334867/SB408124 30 mg/kg, alprazolam 3 mg/kg, experiments 4 and 6
Experimental: Telemetry probes (Data Science International, St. Paul Minn.) were surgically implanted into the abdomen of anaesthetize rats to measure locomotor responses. Cardiovascular responses were measured by a femoral arterial line connected to the telemetric probe which contained a pressure transducer (Data Science International, St. Paul Minn.).
as §1, §2
Cardiovascular responses (i.e., MAP and HR) were measured by a femoral arterial line connected to a telemetric probe which contained a pressure transducer (Cat. no. C50-PXT, Data Science International (DSI) St. Paul Minn.). […] MAP and HR were recorded continuously in freely moving conscious rats and are expressed as a 20 min time course. The data reported are changes in HR and MAP from the average of the baseline (t−5 to t−1) from each rat. […]
In experiments 4-6, rats were made panic vulnerable with 1-AG. 5 days after 1-AG onset, in a counterbalanced design, rats received intraperitoneal (i.p.) injections of treatment drug or vehicle 30 min prior to i.v. infusions. […] In experiment 5, baseline in an open field (OF) behavior test of anxiety was assessed (n=8) prior to 1-AG infusions. […] Immediately following the NaLac challenge, rats were placed in the OF test. […] In experiment 6,1-AG treated rats received an injection of an alternative ORX1 receptor antagonist (30 mg/kg SB408124 (N-(6,8-Difluoro-2-methyl-4-quinolinyl)-N′-(4-(dimethylamino)phenyl)urea), Tocris, in 0.2 ml/100 g volume DMSO, n=4) or vehicle (0.2 ml/100 g volume DMSO, n=6) 30 min prior to NaLac. In experiment 7, control rats (no 1-AG or NaLac treatment) were assessed in a SI test.
Adult male Sprague-Dawley rats were anesthetized and surgically implanted with telemetrical probes to measure cardiovascular activity prior to and during lactate infusions. After a 3 day recovery, rats were anaesthetized and had osmotic minipumps (previously filled with 1-AG) stereotaxically implanted unilaterally into the DMH. […] 1960, Tocris, in 0.2 ml/100 g volume DMSO, n=12], alprazolam (3 mg/kg, Sigma, in 0.2 ml/100 g volume DMSO, n=6) or vehicle (0.2 ml/100 g volume DMSO, n=11) 30 min prior lactate challenge.

C=CC[C@H](N)C(=O)O [1-AG, 1-allylglycine]
c-Fos immunoreactive ORX-A neurons in the DMH/PeF [1]: increased

CNC(=O)c1cc2c(cn1)[nH]c1ccccc12 [FG-7142]
time in open arms of elevated plus maze (FG-7142 treated rats): low open arm times | Mean number of c-Fos immunoreactive cells, Amygdala (−2.56 mm bregma) BLA (c-Fos): 9 ± 4 | Mean number of c-Fos immunoreactive cells, Amygdala (−2.56 mm bregma) LA (c-Fos): 10 ± 4 | Mean number of c-Fos immunoreactive cells, Amygdala (−2.56 mm bregma) MeA (c-Fos): 85 ± 18 | Mean number of c-Fos immunoreactive cells, DRN (−7.80 mm bregma) (c-Fos): 1 ± 0 | Mean number of c-Fos immunoreactive cells, ILC (+2.60 mm bregma) (c-Fos): 12 ± 6 | Mean number of c-Fos immunoreactive cells, IPBN (−9.30 mm bregma) (c-Fos): 9 ± 3 | Mean number of c-Fos immunoreactive cells, LC (−10.04 mm bregma) (c-Fos): 48 ± 5 | Mean number of c-Fos immunoreactive cells, LSI (+0.20 mm bregma) (c-Fos): 12 ± 4 | Mean number of c-Fos immunoreactive cells, PRL (+2.60 mm bregma) (c-Fos): 3 ± 1 | Mean number of c-Fos immunoreactive cells, PeF (−3.14 mm bregma) (c-Fos): 67 ± 23 | Mean number of c-Fos immunoreactive cells, mPBN (−9.30 mm bregma) (c-Fos): 3 ± 1

Cc1cc(NC(=O)Nc2ccc(N(C)C)cc2)c2cc(F)cc(F)c2n1 [SB408124, N-(6,8-Difluoro-2-methyl-4-quinolinyl)-N′-(4-(dimethylamino)phenyl)urea]
anxiety-like responses (social interaction (SI) duration) after NaLac challenge [2]: did not significantly alter | NaLac induced increases in general locomotor activity [3]: did attenuate; also recorded: attenuated | NaLac induced increases in heart rate (HR) [3]: did attenuate; also recorded: attenuated | NaLac induced increases in mean arterial blood pressure (MAP) [3]: did not significantly alter

Cc1nnc2n1-c1ccc(Cl)cc1C(c1ccccc1)=NC2 [alprazolam]
anxiety-like responses (social interaction (SI) duration) after NaLac challenge [2]: attenuated | all lactate induced panic-like responses (SI, Activity, HR, MAP) ([2]; i.p. 30 min prior to lactate, SB334867 30 mg/kg): attenuated; also recorded: anti-panic effects | NaLac induced increases in general locomotor activity [3]: attenuated | NaLac induced increases in heart rate (HR) [3]: attenuated | NaLac induced increases in mean arterial blood pressure (MAP) [3]: attenuated
